Measurements reported in PubChem BioAssay AID256 (DTP/NCI, 2004).
Where “and” joins values, the source holds several entries; their conditions need not be identical. Equal values may be shown once. Inconclusive results and toxic doses are left out.

System: CD2F1 mice, L1210 leukemia ip, survival T/C
Test: NCI In Vivo Anticancer Drug Screen. Data for tumor model L1210 Leukemia (intraperitoneal) in CD2F1 (CDF1) mice
Conditions: higher = longer survival
In short: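 Vehicle-treated tumor-bearing mice served as controls (C) for compound-treated mice (T). Reported figure is T divided by C.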

[1] = endpoint: mean survival time, dose: 100.0 mg/kg/injection, schedule: Q04DX002 (ip), vehicle: saline with Tween-80
[2] = endpoint: mean survival time, dose: 200.0 mg/kg/injection, schedule: Q04DX002 (ip), vehicle: saline with Tween-80
[3] = endpoint: median survival time, dose: 50.0 mg/kg/injection, schedule: Q04DX002 (ip), vehicle: saline with Tween-80
[4] = endpoint: median survival time, dose: 100.0 mg/kg/injection, schedule: Q04DX002 (ip), vehicle: saline with Tween-80
[5] = endpoint: median survival time, dose: 200.0 mg/kg/injection, schedule: Q04DX002 (ip), vehicle: saline with Tween-80
[6] = endpoint: mean survival time, dose: 100.0 mg/kg/injection, schedule: Q01DX001 (ip), vehicle: saline with Tween-80
[7] = endpoint: mean survival time, dose: 100.0 mg/kg/injection, schedule: Q04DX003 (ip), vehicle: saline with Tween-80
[8] = endpoint: mean survival time, dose: 200.0 mg/kg/injection, schedule: Q01DX001 (ip), vehicle: saline with Tween-80
[9] = endpoint: mean survival time, dose: 200.0 mg/kg/injection, schedule: Q04DX003 (ip), vehicle: saline with Tween-80
[10] = endpoint: mean survival time, dose: 400.0 mg/kg/injection, schedule: Q01DX001 (ip), vehicle: saline with Tween-80
[11] = endpoint: mean survival time, dose: 400.0 mg/kg/injection, schedule: Q04DX003 (ip), vehicle: saline with Tween-80
[12] = endpoint: mean survival time, dose: 50.0 mg/kg/injection, schedule: Q01DX009 (ip), vehicle: saline with Tween-80
[13] = endpoint: mean survival time, dose: 100.0 mg/kg/injection, schedule: Q01DX009 (ip), vehicle: saline with Tween-80

In the case of CO/N=C/C1OC(n2ccc(=O)[nH]c2=O)C2OC(C)(C)OC12 (stereo not drawn), the T/C (endpoint: median survival time, dose: 12.5 mg/kg/injection, schedule: Q01DX005 (ip), vehicle: Klucel (hydroxypropylcellulose) (HPC)) is reported as 100 % of control, the T/C (endpoint: median survival time, dose: 25.0 mg/kg/injection, schedule: Q01DX005 (ip), vehicle: Klucel (hydroxypropylcellulose) (HPC)) is reported as 110 % of control and the T/C (endpoint: median survival time, dose: 50.0 mg/kg/injection, schedule: Q01DX005 (ip), vehicle: Klucel (hydroxypropylcellulose) (HPC)) is reported as 107 % of control. The T/C (endpoint: median survival time, dose: 100.0 mg/kg/injection, schedule: Q01DX005 (ip), vehicle: Klucel (hydroxypropylcellulose) (HPC)) was 101 % of control.

Cc1ccccc1N(CC1CO1)CC1CO1 (stereo not drawn) was tested, and the T/C (endpoint: mean survival time, dose: 12.5 mg/kg/injection, schedule: Q01DX009 (ip), vehicle: saline) was 115 % of control and 104 % of control, the T/C (endpoint: mean survival time, dose: 25.0 mg/kg/injection, schedule: Q01DX009 (ip), vehicle: saline) was 98 % of control and 106 % of control and the T/C (endpoint: mean survival time, dose: 50.0 mg/kg/injection, schedule: Q01DX009 (ip), vehicle: saline) was 100 % of control and 111 % of control. For the same molecule, the T/C (endpoint: mean survival time, dose: 100.0 mg/kg/injection, schedule: Q01DX009 (ip), vehicle: saline) was 100 % of control and 106 % of control, the T/C (endpoint: mean survival time, dose: 200.0 mg/kg/injection, schedule: Q01DX009 (ip), vehicle: saline) was 101 % of control and 108 % of control and the T/C (endpoint: mean survival time, dose: 400.0 mg/kg/injection, schedule: Q01DX009 (ip), vehicle: saline) was 100 % of control and 106 % of control.

With C1CC2(CCC13CO3)CO2 (stereo not drawn) the T/C (endpoint: mean survival time, dose: 25.0 mg/kg/injection, schedule: Q04DX002 (ip), vehicle: saline with Tween-80) was 91 % of control, the T/C (endpoint: mean survival time, dose: 50.0 mg/kg/injection, schedule: Q04DX002 (ip), vehicle: saline with Tween-80) was 91 % of control and 103 % of control and the T/C (endpoint: mean survival time, dose: 100.0 mg/kg/injection, schedule: Q04DX002 (ip), vehicle: Klucel (hydroxypropylcellulose) (HPC)) was 102 % of control. For the same molecule, the T/C [1] was 91 % of control and 107 % of control, the T/C (endpoint: mean survival time, dose: 200.0 mg/kg/injection, schedule: Q04DX002 (ip), vehicle: Klucel (hydroxypropylcellulose) (HPC)) was 112 % of control and the T/C [2] was 100 % of control and 119 % of control. For the same molecule, the T/C (endpoint: mean survival time, dose: 400.0 mg/kg/injection, schedule: Q04DX002 (ip), vehicle: Klucel (hydroxypropylcellulose) (HPC)) was 119 % of control, the T/C (endpoint: mean survival time, dose: 600.0 mg/kg/injection, schedule: Q04DX002 (ip), vehicle: Klucel (hydroxypropylcellulose) (HPC)) was 119 % of control and the T/C [3] was 102 % of control. The T/C [4] was 105 % of control, the T/C [5] was 105 % of control and the T/C (endpoint: median survival time, dose: 400.0 mg/kg/injection, schedule: Q04DX002 (ip), vehicle: saline with Tween-80) was 109 % of control. The T/C (endpoint: median survival time, dose: 800.0 mg/kg/injection, schedule: Q04DX002 (ip), vehicle: saline with Tween-80) was 114 % of control.

With O=C(N/N=C/c1ccc2c(c1)CCC2)c1cc2ccccc2cc1O the T/C [6] was 92 % of control, the T/C [7] was 95 % of control and the T/C [8] was 92 % of control. The T/C [9] was 94 % of control, the T/C [10] was 87 % of control and the T/C [11] was 89 % of control.

With CCC1(c2ccccc2)C(=O)N(CBr)C(=O)N(CBr)C1=O the T/C (endpoint: mean survival time, dose: 12.5 mg/kg/injection, schedule: Q01DX009 (ip), vehicle: saline with Tween-80) was 98 % of control, the T/C (endpoint: mean survival time, dose: 25.0 mg/kg/injection, schedule: Q01DX009 (ip), vehicle: saline with Tween-80) was 93 % of control and the T/C [12] was 96 % of control.

ClC1(Cl)C2COCOCC21 (stereo not drawn) was tested, and the T/C [6] was 91 % of control, the T/C [8] was 91 % of control and the T/C [10] was 95 % of control.

With O=C(COc1ccc(Cl)cc1)C1CSc2c(Cl)ccc(Cl)c21 (stereo not drawn) the T/C [7] was 92 % of control, the T/C [9] was 98 % of control and the T/C [11] was 101 % of control.

With CC12CCC(O)CC1=CCC1C2CCC2(C)C1CCC21CCNP(=O)(N(CCCl)CCCl)O1 (stereo not drawn) the T/C (endpoint: mean survival time, dose: 62.5 mg/kg/injection, schedule: Q01DX001 (ip), vehicle: saline) was 98 % of control, the T/C (endpoint: mean survival time, dose: 125.0 mg/kg/injection, schedule: Q01DX001 (ip), vehicle: saline) was 101 % of control and the T/C (endpoint: mean survival time, dose: 250.0 mg/kg/injection, schedule: Q01DX001 (ip), vehicle: saline) was 93 % of control. The T/C (endpoint: mean survival time, dose: 500.0 mg/kg/injection, schedule: Q01DX001 (ip), vehicle: saline) was 97 % of control.

With ON1C=CC2C=CC1c1ccccc12 (stereo not drawn) the T/C [3] was 100 % of control, the T/C [4] was 88 % of control and the T/C [5] was 88 % of control.

CCCCN1C(=O)C(=O)N(c2ccc(S(N)(=O)=O)cc2)C1=O was tested, and the T/C [12] was 100 % of control and the T/C [13] was 89 % of control.

For Cc1ccc(C(=O)Nc2ccccc2I)cc1, the T/C [13] was 97 % of control, the T/C (endpoint: mean survival time, dose: 200.0 mg/kg/injection, schedule: Q01DX009 (ip), vehicle: saline with Tween-80) was 101 % of control and the T/C (endpoint: mean survival time, dose: 400.0 mg/kg/injection, schedule: Q01DX009 (ip), vehicle: saline with Tween-80) was 97 % of control.

For CCCCN1C(=O)c2c(Cl)c(Cl)c(Cl)c(Cl)c2C1=O, the T/C (endpoint: mean survival time, dose: 25.0 mg/kg/injection, schedule: Q04DX002 (ip), vehicle: other) was 90 % of control, the T/C (endpoint: mean survival time, dose: 50.0 mg/kg/injection, schedule: Q04DX002 (ip), vehicle: other) was 90 % of control and the T/C (endpoint: mean survival time, dose: 100.0 mg/kg/injection, schedule: Q04DX002 (ip), vehicle: other) was 86 % of control.

For Nc1ccc(C(=O)Nc2cccc(S(=O)(=O)F)c2)cc1, the T/C [6] was 101 % of control, the T/C [8] was 98 % of control and the T/C [10] was 93 % of control.

In the case of CC1c2ccccc2C=CN1C (stereo not drawn), the T/C (endpoint: mean survival time, dose: 100.0 mg/kg/injection, schedule: Q04DX003 (ip), vehicle: saline sonified) is reported as 95 % of control, the T/C (endpoint: mean survival time, dose: 200.0 mg/kg/injection, schedule: Q04DX003 (ip), vehicle: saline sonified) is reported as 106 % of control and the T/C (endpoint: mean survival time, dose: 400.0 mg/kg/injection, schedule: Q04DX003 (ip), vehicle: saline sonified) is reported as 105 % of control.

Nc1ccc(-c2nc(-c3ccccc3)c(-c3ccccc3)[nH]2)cc1 was tested, and the T/C (endpoint: mean survival time, dose: 12.5 mg/kg/injection, schedule: Q01DX001 (ip), vehicle: saline with Tween-80) was 94 % of control, the T/C (endpoint: mean survival time, dose: 25.0 mg/kg/injection, schedule: Q01DX001 (ip), vehicle: saline with Tween-80) was 102 % of control and the T/C (endpoint: mean survival time, dose: 50.0 mg/kg/injection, schedule: Q01DX001 (ip), vehicle: saline with Tween-80) was 102 % of control. For the same molecule, the T/C [10] was 87 % of control.

For NNN1CCN(N)CC1, the T/C [6] was 103 % of control, the T/C [8] was 111 % of control and the T/C [10] was 91 % of control.

With O=C1C(NCC(O)CO)=C(N2CC2)C(=O)C(NCC(O)CO)=C1N1CC1 (stereo not drawn) the T/C (endpoint: mean survival time, dose: 1.25 mg/kg/injection, schedule: Q01DX009 (oral), vehicle: saline) was 91 % of control and 103 % of control, the T/C (endpoint: mean survival time, dose: 2.5 mg/kg/injection, schedule: Q01DX009 (oral), vehicle: saline) was 98 % of control and the T/C (endpoint: mean survival time, dose: 10.0 mg/kg/injection, schedule: Q01DX009 (oral), vehicle: saline) was 109 % of control. For the same molecule, the T/C (endpoint: mean survival time, dose: 20.0 mg/kg/injection, schedule: Q01DX009 (oral), vehicle: saline) was 104 % of control and 105 % of control, the T/C (endpoint: median survival time, dose: 0.5 mg/kg/injection, schedule: Q01DX009 (ip), vehicle: saline) was 123 % of control and the T/C (endpoint: median survival time, dose: 2.0 mg/kg/injection, schedule: Q01DX009 (ip), vehicle: saline) was 163 % of control. The T/C (endpoint: median survival time, dose: 4.0 mg/kg/injection, schedule: Q01DX009 (ip), vehicle: saline) was 228 % of control and the T/C (endpoint: median survival time, dose: 8.0 mg/kg/injection, schedule: Q01DX009 (ip), vehicle: saline) was 195 % of control.

In the case of CC1CCC2(CC1=O)C(C)CC(=O)C2C(C)C (stereo not drawn), the T/C (endpoint: mean survival time, dose: 100.0 mg/kg/injection, schedule: Q04DX003 (ip), vehicle: saline) is reported as 95 % of control, the T/C (endpoint: mean survival time, dose: 200.0 mg/kg/injection, schedule: Q04DX003 (ip), vehicle: saline) is reported as 98 % of control and the T/C (endpoint: mean survival time, dose: 400.0 mg/kg/injection, schedule: Q04DX003 (ip), vehicle: saline) is reported as 98 % of control.

CCOc1ccc(OCC)c(NC(=O)Nc2ccc(OC)cc2)c1 was tested, and the T/C [1] was 89 % of control, the T/C [2] was 93 % of control and the T/C (endpoint: mean survival time, dose: 400.0 mg/kg/injection, schedule: Q04DX002 (ip), vehicle: saline with Tween-80) was 86 % of control.

With CCc1ccc(NC(=O)c2ccc(C(=O)Nc3ccc(CC)cc3)cc2)cc1 the T/C (endpoint: mean survival time, dose: 100.0 mg/kg/injection, schedule: Q01DX001 (ip), vehicle: saline) was 95 % of control, the T/C (endpoint: mean survival time, dose: 200.0 mg/kg/injection, schedule: Q01DX001 (ip), vehicle: saline) was 95 % of control and the T/C (endpoint: mean survival time, dose: 400.0 mg/kg/injection, schedule: Q01DX001 (ip), vehicle: saline) was 104 % of control.

With CCOC(=O)CCN(C(=O)OCc1ccccc1)N(C)C(=O)OCc1ccccc1 the T/C (endpoint: mean survival time, dose: 25.0 mg/kg/injection, schedule: Q04DX003 (ip), vehicle: Klucel (hydroxypropylcellulose) (HPC)) was 91 % of control, the T/C (endpoint: mean survival time, dose: 50.0 mg/kg/injection, schedule: Q04DX003 (ip), vehicle: Klucel (hydroxypropylcellulose) (HPC)) was 94 % of control and the T/C (endpoint: mean survival time, dose: 100.0 mg/kg/injection, schedule: Q04DX003 (ip), vehicle: Klucel (hydroxypropylcellulose) (HPC)) was 89 % of control. For the same molecule, the T/C (endpoint: mean survival time, dose: 200.0 mg/kg/injection, schedule: Q04DX003 (ip), vehicle: Klucel (hydroxypropylcellulose) (HPC)) was 89 % of control and the T/C (endpoint: mean survival time, dose: 400.0 mg/kg/injection, schedule: Q04DX003 (ip), vehicle: Klucel (hydroxypropylcellulose) (HPC)) was 100 % of control.
